Source: PubChem BioAssay (NCI)
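Here, GI50 denotes the concentration required for 50% inhibition of growth. TGI marks complete inhibition of growth.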

Legend:
Assay in all cases: NCI tumour cell line growth inhibition, 384-well format; in the data active means GI50 below about 0.43 µM; inactive means the rest
SNB-19 CNS = test system: SNB-19 CNS
MDA-MB-435 melanoma = test system: MDA-MB-435 melanoma
786-0 renal = test system: 786-0 renal
UACC-62 melanoma = test system: UACC-62 melanoma
MALME-3M melanoma = test system: MALME-3M melanoma
OVCAR-3 ovarian = test system: OVCAR-3 ovarian
TK-10 renal = test system: TK-10 renal
SK-OV-3 ovarian = test system: SK-OV-3 ovarian
SNB-75 CNS = test system: SNB-75 CNS
MOLT-4 leukemia = test system: MOLT-4 leukemia
SF-539 CNS = test system: SF-539 CNS
CCRF-CEM leukemia = test system: CCRF-CEM leukemia
A498 renal = test system: A498 renal
LOX IMVI melanoma = test system: LOX IMVI melanoma
IGROV1 ovarian = test system: IGROV1 ovarian
UO-31 renal = test system: UO-31 renal
HCT-15 colon = test system: HCT-15 colon
NCI-H322M lung = test system: NCI-H322M lung
NCI-H23 lung = test system: NCI-H23 lung
EKVX NSCLC = test system: EKVX NSCLC
OVCAR-5 ovarian = test system: OVCAR-5 ovarian
RXF 393 renal = test system: RXF 393 renal
HOP-62 NSCLC = test system: HOP-62 NSCLC
HS 578T breast = test system: HS 578T breast
NCI-H522 lung = test system: NCI-H522 lung
SF-268 CNS = test system: SF-268 CNS
K-562 leukemia = test system: K-562 leukemia
MDA-MB-231 breast = test system: MDA-MB-231 breast
OVCAR-4 ovarian = test system: OVCAR-4 ovarian
SK-MEL-28 melanoma = test system: SK-MEL-28 melanoma
BT-549 breast = test system: BT-549 breast
KM12 colon = test system: KM12 colon
UACC-257 melanoma = test system: UACC-257 melanoma
MCF7 breast = test system: MCF7 breast
SK-MEL-5 melanoma = test system: SK-MEL-5 melanoma
M14 melanoma = test system: M14 melanoma
RPMI-8226 leukemia = test system: RPMI-8226 leukemia
MDA-MB-468 breast = test system: MDA-MB-468 breast
U251 glioblastoma = test system: U251 glioblastoma
SN12C renal = test system: SN12C renal
OVCAR-8 ovarian = test system: OVCAR-8 ovarian
HCC-2998 colon = test system: HCC-2998 colon
NCI/ADR-RES ovarian = test system: NCI/ADR-RES ovarian
A549 NSCLC = test system: A549 NSCLC
DU-145 prostate = test system: DU-145 prostate
COLO 205 colon = test system: COLO 205 colon
NCI-H460 NSCLC = test system: NCI-H460 NSCLC
SW-620 colon = test system: SW-620 colon
HL-60(TB) leukemia = test system: HL-60(TB) leukemia
CAKI-1 renal = test system: CAKI-1 renal
HT29 colon = test system: HT29 colon
PC-3 prostate = test system: PC-3 prostate
SF-295 CNS = test system: SF-295 CNS
SR leukemia = test system: SR leukemia
ACHN renal = test system: ACHN renal
T-47D breast = test system: T-47D breast
HOP-92 NSCLC = test system: HOP-92 NSCLC
NCI-H226 lung = test system: NCI-H226 lung

CN1CCN(Cc2ccc(Nc3ncc(Cl)c(Nc4ccccc4S(=O)(=O)N(C)C)n3)cc2)CC1
0.151 µM: TGI (MDA-MB-468 breast)
0.0173 µM: TGI (HL-60(TB) leukemia)
0.888 µM: TGI (OVCAR-4 ovarian)
0.235 µM: TGI (M14 melanoma)
0.363 µM: TGI (SNB-75 CNS)
1.13 µM: TGI (MDA-MB-231 breast)
21.2 µM: TGI (IGROV1 ovarian)
0.306 µM: TGI (SW-620 colon)
0.92 µM: TGI (U251 glioblastoma)
0.0788 µM: TGI (SF-268 CNS)
0.253 µM: TGI (UACC-257 melanoma)
0.123 µM: TGI (UACC-62 melanoma)
0.75 µM: TGI (A549 NSCLC)
0.671 µM: TGI (A498 renal)
15.5 µM: TGI (DU-145 prostate)
0.17 µM: TGI (NCI-H522 lung)
0.298 µM: TGI (KM12 colon)
0.201 µM: TGI (LOX IMVI melanoma)
0.448 µM: TGI (UO-31 renal)
0.0109 µM: TGI (NCI-H460 NSCLC)
0.233 µM: TGI (K-562 leukemia)
> 100 µM: TGI (SNB-19 CNS) | TGI (SK-OV-3 ovarian)
0.481 µM: TGI (NCI/ADR-RES ovarian)
0.605 µM: TGI (OVCAR-5 ovarian)
0.0736 µM: TGI (HOP-62 NSCLC)
0.251 µM: TGI (HCC-2998 colon)
0.234 µM: TGI (NCI-H23 lung)
0.252 µM: TGI (MALME-3M melanoma)
0.274 µM: TGI (SK-MEL-28 melanoma)
0.358 µM: TGI (SN12C renal)
0.186 µM: TGI (SK-MEL-5 melanoma)
0.478 µM: TGI (EKVX NSCLC)
0.0326 µM: TGI (RPMI-8226 leukemia)
0.441 µM: TGI (MDA-MB-435 melanoma)
0.356 µM: TGI (HS 578T breast)
0.371 µM: TGI (HCT-15 colon)
0.257 µM: TGI (BT-549 breast)
0.128 µM: TGI (COLO 205 colon)
0.0153 µM: TGI (CCRF-CEM leukemia)
0.243 µM: TGI (OVCAR-3 ovarian)
active: GI50 (SNB-19 CNS) 0.224 µM | GI50 (MDA-MB-435 melanoma) 0.149 µM | GI50 ([…]-0 renal) 0.109 µM | GI50 (UACC-62 melanoma) < 0.01 µM | GI50 (MALME-3M melanoma) 0.116 µM | GI50 (OVCAR-3 ovarian) 0.0527 µM | GI50 (TK-10 renal) 0.393 µM | GI50 (SK-OV-3 ovarian) 0.28 µM | GI50 (SNB-75 CNS) 0.2 µM | GI50 (MOLT-4 leukemia) < 0.01 µM | GI50 (SF-539 CNS) 0.0181 µM | GI50 (CCRF-CEM leukemia) < 0.01 µM | GI50 (A498 renal) 0.136 µM | GI50 (LOX IMVI melanoma) 0.0205 µM | GI50 (IGROV1 ovarian) 0.0626 µM | GI50 (UO-31 renal) 0.144 µM | GI50 (HCT-15 colon) 0.0725 µM | GI50 (NCI-H322M lung) 0.129 µM | GI50 (NCI-H23 lung) 0.0982 µM | GI50 (EKVX NSCLC) 0.192 µM | GI50 (OVCAR-5 ovarian) 0.128 µM | GI50 (RXF 393 renal) 0.162 µM | GI50 (HOP-62 NSCLC) 0.0208 µM | GI50 (HS 578T breast) 0.181 µM | GI50 (NCI-H522 lung) < 0.01 µM | GI50 (SF-268 CNS) 0.0183 µM | GI50 (K-562 leukemia) 0.0165 µM | GI50 (MDA-MB-231 breast) 0.167 µM | GI50 (OVCAR-4 ovarian) 0.299 µM | GI50 (SK-MEL-28 melanoma) 0.133 µM | GI50 (BT-549 breast) 0.117 µM | GI50 (KM12 colon) 0.0165 µM | GI50 (UACC-257 melanoma) 0.111 µM | GI50 (MCF7 breast) < 0.01 µM | GI50 (SK-MEL-5 melanoma) 0.0292 µM | GI50 (M14 melanoma) 0.098 µM | GI50 (RPMI-8226 leukemia) < 0.01 µM | GI50 (MDA-MB-468 breast) 0.0419 µM | GI50 (U251 glioblastoma) 0.146 µM | GI50 (SN12C renal) 0.14 µM | GI50 (OVCAR-8 ovarian) 0.134 µM | GI50 (HCC-2998 colon) 0.032 µM | GI50 (NCI/ADR-RES ovarian) 0.191 µM | GI50 (A549 NSCLC) < 0.01 µM | GI50 (DU-145 prostate) 0.0452 µM | GI50 (COLO 205 colon) 0.0169 µM | GI50 (NCI-H460 NSCLC) < 0.01 µM | GI50 (SW-620 colon) 0.0448 µM | GI50 (HL-60(TB) leukemia) < 0.01 µM
1.31 µM: TGI (MCF7 breast)
0.351 µM: TGI (NCI-H322M lung)
2.88 µM: TGI (TK-10 renal)
0.42 µM: TGI (OVCAR-8 ovarian)
0.139 µM: TGI (SF-539 CNS)
1.14 µM: TGI (786-0 renal)
0.307 µM: TGI (RXF 393 renal)

O=C(O)CCC1CCC(c2cc(F)ccc2F)(S(=O)(=O)c2ccc(Cl)cc2)CC1 (stereo not drawn)
> 100 µM: TGI (SNB-19 CNS) | TGI (MDA-MB-435 melanoma) | TGI (786-0 renal) | TGI (UACC-62 melanoma) | TGI (MALME-3M melanoma) | TGI (OVCAR-3 ovarian) | TGI (TK-10 renal) | TGI (SK-OV-3 ovarian) | TGI (SNB-75 CNS) | TGI (MOLT-4 leukemia) | TGI (SF-539 CNS) | TGI (CCRF-CEM leukemia) | TGI (A498 renal) | TGI (CAKI-1 renal) | TGI (LOX IMVI melanoma) | TGI (IGROV1 ovarian) | TGI (UO-31 renal) | TGI (HCT-15 colon) | TGI (HT29 colon) | TGI (NCI-H322M lung) | TGI (PC-3 prostate) | TGI (SF-295 CNS) | TGI (NCI-H23 lung) | TGI (EKVX NSCLC) | TGI (SR leukemia) | TGI (ACHN renal) | TGI (OVCAR-5 ovarian) | TGI (RXF 393 renal) | TGI (HOP-62 NSCLC) | TGI (HS 578T breast) | TGI (T-47D breast) | TGI (NCI-H522 lung) | TGI (SF-268 CNS) | TGI (K-562 leukemia) | TGI (HOP-92 NSCLC) | TGI (MDA-MB-231 breast) | TGI (OVCAR-4 ovarian) | TGI (SK-MEL-28 melanoma) | TGI (BT-549 breast) | TGI (KM12 colon) | TGI (UACC-257 melanoma) | TGI (MCF7 breast) | TGI (SK-MEL-5 melanoma) | TGI (M14 melanoma) | TGI (RPMI-8226 leukemia) | TGI (NCI-H226 lung) | TGI (U251 glioblastoma) | TGI (SN12C renal) | TGI (OVCAR-8 ovarian) | TGI (HCC-2998 colon) | TGI (NCI/ADR-RES ovarian) | TGI (A549 NSCLC) | TGI (DU-145 prostate) | TGI (COLO 205 colon) | TGI (NCI-H460 NSCLC) | TGI (SW-620 colon) | TGI (HL-60(TB) leukemia)
inactive: GI50 (SNB-19 CNS) > 100 µM | GI50 (MDA-MB-435 melanoma) 71.9 µM | GI50 ([…]-0 renal) > 100 µM | GI50 (UACC-62 melanoma) > 100 µM | GI50 (MALME-3M melanoma) 62 µM | GI50 (OVCAR-3 ovarian) > 100 µM | GI50 (TK-10 renal) > 100 µM | GI50 (SK-OV-3 ovarian) > 100 µM | GI50 (SNB-75 CNS) > 100 µM | GI50 (MOLT-4 leukemia) 65 µM | GI50 (SF-539 CNS) > 100 µM | GI50 (CCRF-CEM leukemia) 75.8 µM | GI50 (A498 renal) > 100 µM | GI50 (CAKI-1 renal) > 100 µM | GI50 (LOX IMVI melanoma) > 100 µM | GI50 (IGROV1 ovarian) > 100 µM | GI50 (UO-31 renal) > 100 µM | GI50 (HCT-15 colon) > 100 µM | GI50 (HT29 colon) > 100 µM | GI50 (NCI-H322M lung) > 100 µM | GI50 (PC-3 prostate) > 100 µM | GI50 (SF-295 CNS) > 100 µM | GI50 (NCI-H23 lung) > 100 µM | GI50 (EKVX NSCLC) > 100 µM | GI50 (SR leukemia) 24.8 µM | GI50 (ACHN renal) > 100 µM | GI50 (OVCAR-5 ovarian) > 100 µM | GI50 (RXF 393 renal) > 100 µM | GI50 (HOP-62 NSCLC) > 100 µM | GI50 (HS 578T breast) > 100 µM | GI50 (T-47D breast) 99.6 µM | GI50 (NCI-H522 lung) > 100 µM | GI50 (SF-268 CNS) > 100 µM | GI50 (K-562 leukemia) > 100 µM | GI50 (HOP-92 NSCLC) > 100 µM | GI50 (MDA-MB-231 breast) > 100 µM | GI50 (OVCAR-4 ovarian) 78.8 µM | GI50 (SK-MEL-28 melanoma) > 100 µM | GI50 (BT-549 breast) > 100 µM | GI50 (KM12 colon) > 100 µM | GI50 (UACC-257 melanoma) > 100 µM | GI50 (MCF7 breast) > 100 µM | GI50 (SK-MEL-5 melanoma) > 100 µM | GI50 (M14 melanoma) > 100 µM | GI50 (RPMI-8226 leukemia) > 100 µM | GI50 (NCI-H226 lung) > 100 µM | GI50 (MDA-MB-468 breast) 8.1 µM | GI50 (U251 glioblastoma) > 100 µM | GI50 (SN12C renal) > 100 µM | GI50 (OVCAR-8 ovarian) > 100 µM | GI50 (HCC-2998 colon) > 100 µM | GI50 (NCI/ADR-RES ovarian) > 100 µM | GI50 (A549 NSCLC) > 100 µM | GI50 (DU-145 prostate) > 100 µM | GI50 (COLO 205 colon) > 100 µM | GI50 (NCI-H460 NSCLC) > 100 µM | GI50 (SW-620 colon) > 100 µM | GI50 (HL-60(TB) leukemia) > 100 µM
80.4 µM: TGI (MDA-MB-468 breast)
